Experimental data: the CheMixHub ionic liquid set

Experiment: xn = mol fraction of the nth substance listed

CCCC[N+]1(C)CCCC1.O=S(=O)([O-])C(F)(F)F + CC#N
viscosity [mPa·s], 101 kPa
Details	288.15 K	293.15 K	298.15 K
x1 = 0.0008322	0.377	0.358	0.34
x1 = 0.001153	0.379	0.359	0.342
x1 = 0.001607	0.381	0.361	0.345
x1 = 0.002041	0.383	0.364	0.347
x1 = 0.002439	0.386	0.366	0.349
x1 = 0.002832	0.388	0.368	0.351
x1 = 0.003272	0.39	0.369	0.353
x1 = 0.003684	0.392	0.372	0.355
x1 = 0.004131	0.394	0.374	0.357
x1 = 0.00964	0.423	0.404	0.386
x1 = 0.01639	0.458	0.437	0.417
x2 = 0.9756	0.498	0.473	0.45

O=S(=O)([N-]S(=O)(=O)C(F)(F)F)C(F)(F)F.[Li+] + CCCC[N+]1(C)CCCC1.O=S(=O)([N-]S(=O)(=O)C(F)(F)F)C(F)(F)F
100 kPa, x1 = 0.24
Details	electrical conductivity [S/m]
277.9 K	0.007
283.4 K	0.016
298 K	0.062
346.4 K	0.429

CCC(=O)CC + CCCC[n+]1ccn(C)c1.F[P-](F)(F)(F)(F)F
298.15 K, 101.3 kPa
Details	viscosity [mPa·s]
x1 = 0.1927	81.4
x1 = 0.3014	42.7
x1 = 0.5009	13.36
x1 = 0.652	5.36

O=S(=O)([N-]S(=O)(=O)C(F)(F)F)C(F)(F)F.[Cs+] + O=S(=O)([N-]S(=O)(=O)C(F)(F)F)C(F)(F)F.[Li+]
100 kPa, frequency 1 MHz, x2 = 0.07
Details	electrical conductivity [S/m]
403.1 K	0.673
413.1 K	0.898
423.5 K	1.16
432.7 K	1.44
442.1 K	1.77
452.2 K	2.12
462.6 K	2.52
473.6 K	2.94
482.8 K	3.37
492 K	3.86
502.1 K	4.33
512.5 K	4.85
523.1 K	5.37
531.3 K	5.9
542.9 K	6.41
551.8 K	7
560.9 K	7.52
571.1 K	8.14

100 kPa, x2 = 0.07
Details	viscosity [mPa·s]
403.2 K	97
413.2 K	69.8
423.7 K	51.5
432.9 K	39.2
442.5 K	27.9
452.5 K	23
463 K	18.9
473.9 K	15.8
483.1 K	13.1
492.6 K	11.1
502.5 K	9.71
512.8 K	8.54
523.6 K	7.41
531.9 K	6.64
543.5 K	6.03
552.5 K	5.39
561.8 K	5.01

CCCCCO + CCCCCC[n+]1ccn(C)c1.[Cl-]
Details	viscosity [mPa·s]
303.15 K, 101 kPa, x1 = 1	3.03

O=S(=O)([N-]S(=O)(=O)C(F)(F)F)C(F)(F)F.[Li+] + COCCOCCOCCOCCOC
Details	electrical conductivity [S/m]
293 K, 100 kPa, frequency 0.05 MHz, x1 = 0.143	0.235

CS(=O)(=O)[O-].C[N+](C)(CCO)CCO + CCCO
viscosity [mPa·s], 101 kPa
Details	x1 = 0.0999	x1 = 0.1996	x1 = 0.2999	x1 = 0.3987	x1 = 0.498	x1 = 0.5975	x1 = 0.6972	x1 = 0.7982	x1 = 0.8978	x1 = 1
298.15 K	4.97	11.64	25.5	50.9	97.5	196	337	576	960	1495
303.15 K	4.34	9.88	20.9	40.6	75.5	149	248	414	676	1021
308.15 K	3.8	8.45	17.4	32.9	59.6	114.8	187	304	484	716
313.15 K	3.36	7.29	14.66	27	47.7	79.8	142.8	228	355	513
318.15 K	2.98	6.35	12.49	22.5	38.8	63.7	111.4	174	267	378
323.15 K	2.66	5.56	10.92	18.9	32	51.5	79.8	135.8	203	282

O=C(O)CC(O)(CC(=O)O)C(=O)O + C[N+](C)(C)Cc1ccccc1.[Cl-]
101 kPa, x2 = 0.5
Details	electrical conductivity [S/m]	viscosity [mPa·s]
293.15 K	3.3e-05	–
298.09 K	3.9e-05	–
303.11 K	0.000162	–
308.2 K	0.000519	–
312.91 K	–	237000
313.21 K	0.00111	–
318.06 K	0.001906	–
327.86 K	–	52100
328.14 K	0.005576	–
333.12 K	0.009475	–

CCCCCCCCn1cc[n+](C)c1.N[C@@H](CCC(=O)O)C(=O)[O-] + O
298.15 K, 100 kPa
Details	electrical conductivity [S/m]
x1 = 0.001637	0.28
x1 = 0.002301	0.358
x1 = 0.002857	0.426
x1 = 0.003573	0.518
x1 = 0.004181	0.593
x1 = 0.004913	0.651
x1 = 0.005822	0.708
x1 = 0.006748	0.759
x1 = 0.008079	0.835
x1 = 0.008965	0.89
x1 = 0.01029	0.928
x1 = 0.01145	0.926

CCCCn1cc[n+](C)c1C.O=S(=O)([N-]S(=O)(=O)C(F)(F)F)C(F)(F)F + CC[N+](C)(CC)CCOC.O=S(=O)([N-]S(=O)(=O)C(F)(F)F)C(F)(F)F
100 kPa, x2 = 0
Details	electrical conductivity [S/m]
298.15 K	0.237
308.15 K	0.379
323.15 K	0.665
328.15 K	0.777

CCC(=O)[O-].C[NH2+]Cc1ccccc1 + CN(C)C=O
viscosity [mPa·s], 101 kPa
Details	293.15 K	298.15 K	303.15 K	308.15 K	313.15 K	318.15 K	323.15 K	328.15 K
x1 = 0.006359	0.956	0.914	0.877	0.845	0.816	0.79	0.766	0.745
x1 = 0.01185	0.969	0.926	0.888	0.854	0.824	0.797	0.772	0.75
x1 = 0.01701	0.989	0.944	0.902	0.866	0.835	0.807	0.781	0.758
x1 = 0.02175	1.007	0.958	0.915	0.878	0.845	0.815	0.788	0.764
x1 = 0.02663	1.016	0.966	0.922	0.884	0.85	0.819	0.792	0.768
x1 = 0.03255	1.045	0.991	0.944	0.903	0.866	0.834	0.805	0.779
x1 = 0.0357	1.057	1.001	0.953	0.911	0.874	0.841	0.812	0.786
x1 = 0.04024	1.072	1.015	0.965	0.921	0.882	0.848	0.818	0.791

CCCC[n+]1ccn(C)c1.C[C@H](N)C(=O)[O-] + O
viscosity [mPa·s], 100.3 kPa
Details	288.15 K	293.15 K	298.15 K	303.15 K	308.15 K	313.15 K	318.15 K	323.15 K	328.15 K
x1 = 0.0002936	1.156	1.017	0.9	0.81	0.726	0.661	0.604	0.554	0.511
x1 = 0.0003927	1.162	1.022	0.907	0.813	0.732	0.664	0.606	0.557	0.513
x1 = 0.0004989	1.167	1.027	0.911	0.817	0.735	0.666	0.608	0.559	0.515
x1 = 0.0009775	1.203	1.057	0.937	0.838	0.755	0.685	0.626	0.573	0.529
x1 = 0.002927	1.361	1.197	1.057	0.939	0.842	0.759	0.688	0.629	–
x1 = 0.004981	1.513	1.326	1.163	1.028	0.917	0.827	0.749	0.685	–
x1 = 0.007048	1.658	1.446	1.273	1.119	0.997	0.894	0.806	0.736	–
x1 = 0.009016	1.821	1.575	1.368	1.209	1.07	0.959	0.867	0.781	–
x1 = 0.01103	1.957	1.697	1.477	1.301	1.147	1.027	0.929	0.832	–
x1 = 0.01317	2.101	1.819	1.58	1.38	1.225	1.089	0.986	0.888	–
x1 = 0.01511	2.246	1.941	1.677	1.469	1.292	1.156	1.037	0.932	–
x1 = 0.01781	2.459	2.107	1.825	1.598	1.393	1.253	1.115	0.999	–

CCCCCCCCCCCC[n+]1ccn(C)c1.[Cl-] + O
298.15 K, 100 kPa, frequency 0.001 MHz
Details	electrical conductivity [S/m]
x1 = 7.207e-05	0.035
x1 = 9.009e-05	0.043
x1 = 0.0001261	0.059
x1 = 0.0001802	0.085
x1 = 0.0002162	0.102
x1 = 0.0002882	0.129
x1 = 0.0003242	0.137
x1 = 0.0004143	0.155
x1 = 0.0004503	0.163
x1 = 0.0004863	0.17
x1 = 0.0005223	0.177

OCCO + CC[n+]1ccn(C)c1.F[B-](F)(F)F
viscosity [mPa·s]
Details	293.15 K	298.15 K	323.15 K	333.15 K	343.15 K
100 kPa, x1 = 1	21.4	17.4	7.12	–	4.1
101 kPa, x2 = 0	–	–	–	5.19	–

CS(=O)(=O)[O-].C[N+](C)(CCO)CCO + CC(C)O
viscosity [mPa·s], 101 kPa
Details	x1 = 0.0998	x1 = 0.2001	x1 = 0.3002	x1 = 0.4004	x1 = 0.4982	x1 = 0.5999	x1 = 0.6997	x1 = 0.7978	x1 = 0.8994	x1 = 1
298.15 K	5.62	13.5	30.1	61	123	227	385	628	1025	1495
303.15 K	4.78	11.45	24.1	47.7	86.7	168	281	445	712	1021
308.15 K	4.13	9.67	19.7	38	67.4	128.7	210	324	507	716
313.15 K	3.6	8.13	16.3	30.7	53.4	89.6	159	243	370	513
318.15 K	3.36	6.96	13.7	25.2	43	70.7	123.6	186	278	378
323.15 K	2.83	6.02	11.86	21	35.1	56.7	87	143.8	211	282
